According to patent publication US20210330594A1, “Fast-Acting Soft Gelatin Capsules Containing A Mixture Of Pain Reliever/Fever Reducer, Diuretic And Antihistamine” (PuraCap Pharmaceutical LLC, priority 2018, published 2021):
Where a name gives a salt, the structure may show the parent alone.

Experiment: Stability determination of softgels under accelerated conditions (API assay)
Format: physicochemical
Details: for T0 % of label: softgel of Example 1, initial (T0) API assay; for Assay % of label 40° C./75% RH 1 M / Assay % of label 40° C./75% RH 2 M / Assay % of label 40° C./75% RH 3 M: softgel, accelerated conditions 40° C./75% RH
Description: Manufactured softgels are evaluated to predict shelf life of the product. Softgel samples are kept under accelerated conditions (ACC) of 40° C./75% RH for 180 days. Samples are withdrawn and tested at predetermined periods for API assay and homogeneity. Results are compared against the label specification; if ACC-6M results (i.e., at 6 months) are within specification then a product shelf life of 2 years is predicted.

T0 % of label | Assay % of label 40° C./75% RH 1 M | Assay % of label 40° C./75% RH 2 M | Assay % of label 40° C./75% RH 3 M | Structure (SMILES)
94.2 % of label | 94.0 % of label | 94.1 % of label | 92.2 % of label | CC(=O)Nc1ccc(O)cc1 [Acetaminophen]
95.5 % of label | 95.1 % of label | 95.0 % of label | 93.4 % of label | Cn1c(=O)c2[nH]c(Br)nc2n(C)c1=O [Pamabrom]
94.3 % of label | 94.0 % of label | 94.2 % of label | 93.9 % of label | COc1ccc(CN(CCN(C)C)c2ccccn2)cc1 [Pyrilamine Maleate]
